Data published in ChEMBL document CHEMBL3507680, “University of Dundee, Gates Library screen for HepG2 cell viability”.

assay: Human HepG2 cell viability assay in 384 well format; assay type: toxicity, cell-based; parameters: dose 125 nL, time 70.5 hour; concentration not given beside the values; settings: HepG2 cells, read-out: Inhibition

Compound	cytotoxicity at 70.5 h [%]
CC(C)c1cc(C(=O)NCCn2nnc3ccccc32)no1	41.3
CC(C)Cn1cncc1CNC1CCSCC1	42.7
CCCS(=O)(=O)NCC(O)c1c(Cl)cccc1Cl (stereo not given)	-0.597
O=C(Nc1cccc(F)c1)N1CCN(Cc2noc(C3CC3)n2)CC1	-13.8
CC(=O)N1CCC(c2cncc(Oc3ccccc3)n2)CC1	-2.89
CCN1CCC2(COCc3c(C)nc(N(C)C)nc32)C1 (stereo not given)	-8.16
Cc1cc(N2CCCC2c2nc(C)cc(CCC(=O)O)n2)ncn1 (stereo not given)	-9.37
c1ccc(-c2nc3c(c(NCCc4c[nH]cn4)n2)CCNC3)cc1	-12.1
CCN1CCC(CC(=O)NCCc2nc(O)cc(O)n2)CC1	16.1
CN(C)c1nccc(N2CCO[C@H]3CN(Cc4ccco4)C[C@H]32)n1	3.82
CS(=O)(=O)N1CCCC12CCCN(S(=O)(=O)c1cc(F)cc(F)c1)C2 (stereo not given)	-5.59
O=C(NCC1(O)CCC1)NC(c1cc(F)ccc1F)C1CC1 (stereo not given)	-6.17
CN(Cc1ccco1)[C@@H]1CN(Cc2ccco2)[C@@H]2CCCO[C@H]12	-9.38
CCN1CCN(c2ccc(C(=O)NCCn3ccnc3)cc2F)CC1	-3.77
FC(F)(F)c1ccc(-c2cnc(C3CCCN3)cn2)cc1 (stereo not given)	13.6
CCOc1cc(N2CCN(C(=O)c3ccc(OC)cc3)CC2)nc(C)n1	5.38
CCCSCC(=O)N1C[C@@H]2CC[C@H](C1)N(Cc1ccccn1)C2=O	-5.83
N#CCCN(Cc1ccco1)C(=O)c1ccc(OCC2CC2)cc1	-4.89
COC(=O)c1sc(C(F)(F)F)cc1OC	-12.4
CCc1nccn1C1CCCN(C(=O)c2c(C)nsc2NC)C1 (stereo not given)	-7.79
CCc1nc(CC(=O)Nc2cnn(CC3CCCO3)c2)cs1 (stereo not given)	-7.79
CCc1nnc2n1CCN(CC(=O)Nc1cc(C)on1)C2	0.374
CC1=CC[C@@H]2CN(C(=O)c3ccc(-c4cc[nH]n4)cc3)C[C@@H]2C1	0.519

Compound	cytotoxicity at 70.5 h [%]
COCCNC(=O)c1cc(C)nc(C2CCN(C)CC2)n1	-3.41
CC(C)[C@H]1COC(=O)N1Cc1nccn1C1CC1	-3.35
Fc1ccc2c(c1)C(NCc1nnc3n1CCCCC3)CCCO2 (stereo not given)	3.88
Cc1occc1C(=O)N1CCC2(CCN(Cc3nccs3)C2)CC1	-11
CN(C)C(=O)CN1CCN(Cc2coc(-c3cccc(F)c3)n2)CC1	-11.2
COCC(O)CN1CCC(NC(=O)c2cscc2C)CC1 (stereo not given)	3.56
Cc1cc(C)c(CNc2cnc3ccccc3n2)c(=O)[nH]1	59.4
OCC1(O)CCN(Cc2ccc(-c3cc[nH]n3)s2)CC1	6.86
CC(=O)NCC(=O)N1CCOC2(CCCN(c3cccnc3)C2)C1 (stereo not given)	14.8
Cn1cncc1CN1CCOC(Cc2ccccc2)C1 (stereo not given)	-8.78
Cc1nc(C2CCCN2C(=O)c2ccc3c(c2)nc(C)n3C)no1 (stereo not given)	3.45
CCc1[nH]ncc1C(=O)N1CCCC(n2cncn2)C1 (stereo not given)	1.79
CC1(C)CN(CC(F)(F)F)CCN1CC(=O)N1CCCCC1	11.7
CCCN1CCC(Cc2noc(-c3cccnc3OC)n2)CC1	2.25
CN(C)c1nc2c(c(NCc3nnc4n3CCCCC4)n1)CCNC2	-6.97
O=C(Cc1ccccn1)N1C[C@H](OCc2cccnc2)[C@H]2COC[C@H]21	0.247
O=C(NCC1CC1)C1CSCN1S(=O)(=O)c1ccccc1F (stereo not given)	4.99
Cc1cc(C(=O)NCc2ccccc2CN(C)Cc2ccco2)on1	9.59
CCCS(=O)(=O)NCC1CCOc2ccccc2C1 (stereo not given)	-1.69
O=C(O)[C@@H]1CCN(C(=O)c2ccccn2)[C@@H]1c1ccc(F)cc1	-7.21
CN(C)CCN1C(=O)CCC12CCCN(C(=O)c1ccncc1F)C2 (stereo not given)	15.9
N#Cc1ccc(SCCC(=O)N(Cc2cccnc2)C2CC2)cc1	-7.83
CC(C)Cc1noc(CNc2cccc(-c3nnnn3C)c2)n1	-11

Compound	cytotoxicity at 70.5 h [%]
COc1cccc(Cn2ncnc2CCSC)c1	-12.2
CCN1CCOC(CNCc2ccc(C)s2)C1 (stereo not given)	-4.21
CC(=O)N1CC(C)CN(C(=O)c2cnccn2)c2ccccc21 (stereo not given)	-12.2
O=C(CCc1cc(Cl)no1)N1CCCCC1CCN1CCOCC1 (stereo not given)	-2.5
Cc1cc(C)n(Cc2ccc(C(=O)N3CCOCC3(C)C)cc2)n1	12.1
O=C(c1cc2c(s1)CCN2C(=O)C1CC1)N1CCCC1	-4.7
Cc1cccc(CN2CC[C@@H]3[C@@H]2CCN3C(=O)c2ccoc2C)n1	0.304
Cc1oc(-c2ccc(F)cc2)nc1CN1CCOCS1(=O)=O	-12.2
O=S(=O)(C1CC1)N1CCc2onc(COc3ccccn3)c2C1	34.6
C[C@@H](CO)Nc1nccc(-c2cnc3sc(Cl)cn3c2=O)n1	-8.27
c1ccc(CNc2ncc(CN3CC[C@H]4CC[C@@H](C3)N4)cn2)cc1	18.2
c1cc(CN2CCC3(CCOCC3COCC3CC3)CC2)ccn1 (stereo not given)	0.537
COCC(=O)N1CCCn2c(CN3CCCCC3)nnc2C1	-7.69
Cc1cccc(C)c1OCCNC(=O)NC(C)c1nncn1C (stereo not given)	41.6
CCCn1cc2c(C(F)F)cc(SCC(=O)O)nc2n1	-8.88
CCn1cc(CN(C)S(=O)(=O)N2CCCC2c2ccco2)cn1 (stereo not given)	-1.42
CC(Oc1cc(Cl)cc(Cl)c1)C(=O)NCCS(N)(=O)=O (stereo not given)	-4
CN1CCCN(C(=O)c2cc(-c3cc[nH]n3)n3ccccc23)CC1	-1.54
CNS(=O)(=O)c1ccc(CNC(=O)Nc2cc(C)on2)s1	-6.5
CCCNC(c1cccnc1)c1ccc(F)c(C)c1 (stereo not given)	-13.4
COc1ccc2c(c1)C(=O)NC1(CC2)CCN(Cc2cccnc2)C1 (stereo not given)	-2.38
Cc1nnc2ccc(OCCNS(=O)(=O)c3cccs3)nn12	-9.99
N#Cc1cccnc1NCc1cccc(C(=O)NCC2CCCCO2)c1 (stereo not given)	-10.4

Compound	cytotoxicity at 70.5 h [%]
COc1ccc(NC(=O)CSc2ccc3nncn3n2)c(OC)c1	-15.9
CC(C)(CNC(=O)C1CCCN1S(C)(=O)=O)N1CCOCC1 (stereo not given)	-11
Cc1cc(CN2C[C@@H](N3CCN(C)CC3)[C@H]3OCCC[C@H]32)oc1C	-4.18
Cc1cccc(-c2ncc(CNC(C)Cc3ncccc3C)cn2)c1 (stereo not given)	48.7
Cc1cccc(Nc2nccnc2C2CCCN(CC(=O)N(C)C)C2)n1 (stereo not given)	-7.55
COCc1cccc(C(=O)N(C)Cc2ncc(C)c(OC)c2C)c1	-8.49
CC(=O)N1CCC(C(=O)NCCN2CCCCC2)CC1	-0.67
COc1ccc(Cl)cc1C(C(=O)O)N(C)Cc1ccon1 (stereo not given)	11.7
CN1CCCC[C@@H]2[C@H]1[C@@H](c1ccccc1)CCN2C(=O)c1cccnc1	-7.01
CS(=O)(=O)N1CCCC12CCCN(C(=O)c1ccc3c(c1)OCO3)C2 (stereo not given)	-7.38
Cc1nc(CN2CCN(C(=O)NC(C)Cn3ccnc3)CC2)cs1 (stereo not given)	-0.978
COCCNC(=O)CN(C)C(C)c1nc(C)no1 (stereo not given)	3.14
O=S(=O)(NCC1(O)CCCC1)c1ccccc1Br	-0.293
NS(=O)(=O)CCNC(=O)c1cc(Br)c2c(c1)OCCO2	-10.7
Cc1ccc(-c2nc(CN3CC(n4nc(C)cc4C)C3)no2)cc1	-8.79
COCCCN1CC2(CCCN(CCn3cc(Cl)cn3)C2)CCC1=O (stereo not given)	-21.9
CC(C)c1nnc2ccc(N3CCC(C(=O)O)CC3)nn12	-25.9
Cc1ccc(CNC(=O)NC(C)Cn2cccn2)cn1 (stereo not given)	-9.6
Cc1cccc(C(C)(C)NC(=O)CCS(C)(=O)=O)c1	-3.08
CC(C)(C)OC(=O)NC1CCC(NC(=O)c2ccc[nH]2)CC1 (stereo not given)	-6.62
CC(=O)N1CCC(NC(=O)CN2CCCc3c(C)ccc(F)c32)CC1	-9.21
Cc1cccc(CN2C(=O)CCC23CCN(Cc2cccn2C)CC3)n1	-3.65
O=C(NCc1cnc2n1CCN(Cc1ccsc1)CC2)C1CCC1	-10.8

Compound	cytotoxicity at 70.5 h [%]
OCCN1CCC(c2cncc(-c3cccc(Cl)c3)n2)CC1	-3.96
CCN(CC)C(=O)c1nnsc1-c1ccc(Cl)cc1	-17.2
COc1ccc(F)c(CN2CCCC(O)(CNC3CCCCC3)C2=O)c1 (stereo not given)	-2.81
CC(Sc1nnc(C2CC2)n1CC(N)=O)c1ccc(Cl)cc1 (stereo not given)	-8.5
CC(=O)N(C)CC(=O)NC1(c2ccc(F)cc2)CCCC1	-2.78
CCc1ccsc1C(=O)NC(Cc1ccccc1)C(N)=O (stereo not given)	-6.72
Cc1noc(C)c1C(=O)N1CCOC2(COCCN(C(C)C)C2)C1 (stereo not given)	-1.02
Cc1nccn1CCN(C)C(=O)c1cn(-c2ccccc2)nn1	33.5
Cc1ccsc1C1CC(=O)Nc2c1cnn2C(C)C (stereo not given)	-7.26
CCc1ncc2c(n1)CN(Cc1cnc(C)cn1)CC2	-72.8
CC(C)c1nn(C)c(Cl)c1CNCc1ccc2c(c1)OCCO2	3.82
CC(C)C(NC(=O)N1CCN(c2ccc(Cl)cc2)CC1)C(=O)NC1CC1 (stereo not given)	-6.65
CC(CN1CCOCC1)NC(=O)NCc1cccs1 (stereo not given)	-7.69
Cc1nc(O)cc([C@@H]2CN(S(=O)(=O)N(C)C)C[C@H]2c2ccccc2F)n1	-8.96
Cn1c(-c2ccccc2Cl)nc2cc(C(=O)NCC3(CO)CC3)cnc21	-10
Cc1nnc(NC(=O)CN2CCOC(Cn3cccn3)C2)s1 (stereo not given)	-6.17
CCN(CC)CCNC(=O)c1ccn(COc2cc(C)cc(C)c2)n1	-3.13
CS(=O)(=O)c1snnc1C1CCN(Cc2cccnc2)CC1	8.4
COc1cc(CNCc2ccc(NC(=O)NC(C)C)cc2)cc(OC)c1	2.03
CCN(Cc1ccc2c(c1)OCO2)C(=O)c1cccnc1O	-5.82
CS(=O)(=O)Nc1ccn(Cc2ccc(F)cc2Cl)n1	-12.3
CCCc1c(C(=O)N2CCN(c3cnccn3)CC2)cnn1C	-14.4
c1cn(-c2cnc(C3CCCNC3)cn2)cn1 (stereo not given)	22.8
